# “And” between values parts separate entries of the source, which are not always exact repeats. Equal values may be shown once. Read-outs that look alike come from different tables or passages of the source. Starred links: 1 amine or outer side, 2 acyl side, 3 side chain; linkers in the order of their positions; H or OH if unused. Positions of bridges follow the written chain, without caps; N, C: chain ends. Non-standard residues stand in square brackets, D forms with d. Residues, ends and D or L forms follow the SMILES beside them. *: point of attachment. Orn(4R-OH,5R-OCH2CH2NMe3+) = C[N+](C)(C)CCO[C@@H](N[*:3])[C@H](O)C[C@H](N[*:1])C(=O)[*:2]; pTerphenylCO(4''-OnC5H11) = CCCCCOc1ccc(-c2ccc(-c3ccc(C(=O)*)cc3)cc2)cc1; hTyr(3S-OH,4S-OH) = N[C@H](C(=O)O)[C@H](O)[C@@H](O)c1ccc(O)cc1; Pro(3S-OH,4S-Me) = C[C@H]1CN[C@H](C(=O)O)[C@H]1O; Hyp = O=C(O)[C@@H]1C[C@@H](O)CN1
# Assays:
# [1] = system: C. albicans vaginal isolates; assay: Susceptibility testing of VVC clinical isolates at pH 7 and 4 (CLSI M27-A3); format: cell-based, Candida albicans; settings: Candida albicans; for MIC: 48 h; for MIC90: 60 isolates, 24 h, read-out: MIC90
# C. krusei ATCC 6258 [2] = format: cell-based, Candida krusei
# Protocol: (§1) Spontaneous mutant selection. […] Three individual colonies from each strain were used to start cultures in RPMI. […] One milliliter aliquots were spread onto SDA plates containing drug with sterile glass beads. Starting viable count was enumerated by triplicate plating of serial dilutions of the starting inoculum. […] Glycerol stocks of putative mutant colonies were stored at −80° C. […] Spontaneous mutation frequencies were calculated by dividing the number of resistant colonies on a given plate by the starting inoculum plated. A subset of mutants (weighted heavily towards those selected with CMP1) were then evaluated by MIC and sequencing of FKS gene hot spot regions.
# Candida orthopsilosis = assay: Broth microdilution of invasive fungal isolates (CLSI M27-A3/M38-A2); format: cell-based; settings: 10 isolates
# Candida albicans = assay: as above; format: cell-based
# Aspergillus fumigatus = assay: Broth microdilution of invasive fungal isolates (CLSI M27-A3/M38-A2), MEC; format: cell-based; settings: 56 isolates
# C. albicans NRRL Y-477 = format: cell-based, Candida albicans
# Protocol: as §1
# C. parapsilosis CP02 = format: cell-based, Candida parapsilosis
# Protocol: as §1
# C. krusei ATCC 6258 [3] = assay: Broth microdilution MIC (CLSI), Examples 3 and 4; settings: Pichia kudriavzevii, ATCC6258, 24 h, read-out: Broth MIC
# Protocol: (§2) Antifungal susceptibility testing. Candida strains were cultured aerobically at 35° C. on SDA plates or in RPMI 1640 broth (pH 7.0). […] MIC assays were performed in triplicate.
# [4] = system: azole-resistant Candida albicans R357 strain; assay: microbe, parasite or virus in culture; format: cell-based; settings: Candida albicans
# Candida dubliniensis = assay: Broth microdilution of invasive fungal isolates (CLSI M27-A3/M38-A2); format: cell-based; settings: 11 isolates
# [5] = system: C. glabrata ATCC 90030, ATCC 2001; assay: Broth microdilution MIC (CLSI), Examples 3 and 4; settings: Nakaseomyces glabratus
# Protocol: as §2
# [6] = SDA, minimum concentration to cleanly inhibit growth
# [7] = replicate plates 1-3, listed as CMP1
smiles,measurement,setting,value
"CCCCCOc1ccc(-c2ccc(-c3ccc(C(=O)N[C@H]4C[C@@H](O)[C@@H](OCC[N+](C)(C)C)NC(=O)[C@@H]5[C@@H](O)[C@@H](C)CN5C(=O)[C@H]([C@@H](C)O)NC(=O)[C@H]([C@H](O)[C@@H](O)c5ccc(O)cc5)NC(=O)[C@@H]5C[C@@H](O)CN5C(=O)[C@H]([C@@H](C)O)NC4=O)cc3)cc2)cc1 [Compound 1] ({pTerphenylCO(4''-OnC5H11)}-[Orn(4R-OH,5R-OCH2CH2NMe3+)]T[Hyp][hTyr(3S-OH,4S-OH)]T[Pro(3S-OH,4S-Me)]; lactam 1-C)",MIC,"[1]; pH 7, fluconazole-resistant isolate 2, pH 7",0.25 µg/mL
same,MIC,"[1]; pH 7, fluconazole-resistant isolate 3, pH 7, read-out: MIC",0.03 µg/mL
same,MIC,"[1]; pH 7, fluconazole-resistant isolate 4, pH 7, read-out: MIC",0.06 µg/mL
same,MIC,"[1]; pH 7, fluconazole-resistant isolate 5, pH 7",0.125 µg/mL
same,MIC,"[1]; pH 7, fluconazole-resistant isolate 6, pH 7, read-out: MIC",0.03 µg/mL
same,MIC,"[1]; pH 7, fluconazole-resistant isolate 7, pH 7, read-out: MIC",0.03 µg/mL
same,MIC,"[1]; pH 7, fluconazole-resistant isolate 8, pH 7",0.125 µg/mL
same,MIC,"[1]; pH 7, fluconazole-resistant isolate 9, pH 7, read-out: MIC",1 µg/mL
same,MIC,"[1]; pH 7, fluconazole-resistant isolate 10, pH 7",0.125 µg/mL
same,MIC90,[1]; pH 4,0.25 µg/mL
same,MIC90,[1]; pH 7,0.06 µg/mL
same,Median mutation frequency,C. krusei ATCC 6258 [2],3.86E−09
same,Plate concentration,C. krusei ATCC 6258 [2]; [6],0.25 µg/mL
same,Freq. (replicate mutation frequency),C. krusei ATCC 6258 [2]; [7],1.54E−08 and 3.51E−09 and 3.86E−09
same,Cumulative % of isolates inhibited at MIC 0.12 μg/mL,Candida orthopsilosis,(10.0) %
same,Cumulative % of isolates inhibited at MIC 0.25 μg/mL,Candida orthopsilosis,(40.0) %
same,Cumulative % of isolates inhibited at MIC 0.5 μg/mL,Candida orthopsilosis,(50.0) %
same,Cumulative % of isolates inhibited at MIC 1 μg/mL,Candida orthopsilosis,(90.0) %
same,Cumulative % of isolates inhibited at MIC 2 μg/mL,Candida orthopsilosis,(100.0) %
same,Number of isolates inhibited at MIC 0.12 μg/mL,Candida orthopsilosis,1
same,Number of isolates inhibited at MIC 0.25 μg/mL,Candida orthopsilosis,3
same,Number of isolates inhibited at MIC 0.5 μg/mL,Candida orthopsilosis,1
same,Number of isolates inhibited at MIC 1 μg/mL,Candida orthopsilosis,4
same,Number of isolates inhibited at MIC 2 μg/mL,Candida orthopsilosis,1
same,MIC50,"Candida orthopsilosis; Lodderomyces orthopsilosis, read-out: MIC50",0.5 µg/mL
same,MIC90,"Candida orthopsilosis; Lodderomyces orthopsilosis, read-out: MIC90",1 µg/mL
same,Cumulative % of isolates inhibited at MIC 0.015 μg/mL,Candida albicans; 251 isolates,(49.4) %
same,Cumulative % of isolates inhibited at MIC 0.03 μg/mL,Candida albicans; 251 isolates,(85.7) %
same,Cumulative % of isolates inhibited at MIC 0.06 μg/mL,Candida albicans; 251 isolates,(96.8) %
same,Cumulative % of isolates inhibited at MIC 0.12 μg/mL,Candida albicans; 251 isolates,(100.0) %
same,Cumulative % of isolates inhibited at MIC ≤0.008 μg/mL,Candida albicans; 251 isolates,(6.8) %
same,Number of isolates inhibited at MIC 0.015 μg/mL,Candida albicans; 251 isolates,107
same,Number of isolates inhibited at MIC 0.03 μg/mL,Candida albicans; 251 isolates,91
same,Number of isolates inhibited at MIC 0.06 μg/mL,Candida albicans; 251 isolates,28
same,Number of isolates inhibited at MIC 0.12 μg/mL,Candida albicans; 251 isolates,8
same,Number of isolates inhibited at MIC ≤0.008 μg/mL,Candida albicans; 251 isolates,17
same,MIC50,"Candida albicans; Candida albicans, 251 isolates, read-out: MIC50",0.03 µg/mL
same,MIC90,"Candida albicans; Candida albicans, 251 isolates, read-out: MIC90",0.06 µg/mL
same,concentration at which all isolates were inhibited,Candida albicans; all 251 isolates,≤ 0.12 µg/mL
same,Cumulative % of isolates inhibited at MEC 0.015 μg/mL,Aspergillus fumigatus,(92.9) %
same,Cumulative % of isolates inhibited at MEC 0.03 μg/mL,Aspergillus fumigatus,(100.0) %
same,Cumulative % of isolates inhibited at MEC ≤0.008 μg/mL,Aspergillus fumigatus,(41.1) %
same,Number of isolates inhibited at MEC 0.015 μg/mL,Aspergillus fumigatus,29
same,Number of isolates inhibited at MEC 0.03 μg/mL,Aspergillus fumigatus,4
same,Number of isolates inhibited at MEC ≤0.008 μg/mL,Aspergillus fumigatus,23
same,Median mutation frequency,C. albicans NRRL Y-477,5.00E−08
same,Plate concentration,C. albicans NRRL Y-477; [6],0.06 µg/mL
same,Freq. (replicate mutation frequency),C. albicans NRRL Y-477; [7],5.00E−08 and 2.27E−08 and 5.47E−08
same,Median mutation frequency,C. parapsilosis CP02,2.08E−08
same,Plate concentration,C. parapsilosis CP02; [6],8 µg/mL
same,Freq. (replicate mutation frequency),C. parapsilosis CP02; [7],2.08E−08 (2×) and 9.62E−09
same,MIC,C. krusei ATCC 6258 [3],0.06 µg/mL
same,MIC,[4],0.125 µg/mL
same,Cumulative % of isolates inhibited at MIC 0.03 μg/mL,Candida dubliniensis,(54.5) %
same,Cumulative % of isolates inhibited at MIC 0.06 μg/mL,Candida dubliniensis,(90.9) %
same,Cumulative % of isolates inhibited at MIC 0.12 μg/mL,Candida dubliniensis,(100.0) %
same,Number of isolates inhibited at MIC 0.03 μg/mL,Candida dubliniensis,6
same,Number of isolates inhibited at MIC 0.06 μg/mL,Candida dubliniensis,4
same,Number of isolates inhibited at MIC 0.12 μg/mL,Candida dubliniensis,1
same,MIC50,"Candida dubliniensis; Candida dubliniensis, read-out: MIC50",0.03 µg/mL
same,MIC90,"Candida dubliniensis; Candida dubliniensis, read-out: MIC90",0.06 µg/mL
same,MIC,"[5]; ATCC2001|ATCC90030, 24 h, read-out: Broth MIC, ATCC 2001 wild-type, 24 h, ~50% inhibition",0.125 µg/mL
same,MIC,"[5]; ATCC2001|ATCC90030, 24 h, read-out: Broth MIC, ATCC 90030 wild-type, 24 h, ~50% inhibition",0.06 µg/mL
same,MIC,"[5]; ATCC2001|ATCC90030, ATCC 2001 spontaneous mutant, Fks2 HS1 D666N",0.5 µg/mL
same,MIC,"[5]; ATCC2001|ATCC90030, ATCC 2001 spontaneous mutant, Fks2 HS1 D666Y",0.5 µg/mL
same,MIC,"[5]; ATCC2001|ATCC90030, ATCC 2001 spontaneous mutant, Fks2 HS1 R665G",0.5 µg/mL
same,MIC,"[5]; ATCC2001|ATCC90030, ATCC 2001 spontaneous mutant, Fks2 HS1 S663F",1 µg/mL
same,MIC,"[5]; ATCC2001|ATCC90030, ATCC 2001 spontaneous mutant, Fks2 HS1 ΔF659",2 µg/mL
same,MIC,"[5]; ATCC2001|ATCC90030, ATCC 2001 spontaneous mutant, Fks2 HS2 R1378S",0.25 µg/mL
same,MIC,"[5]; ATCC2001|ATCC90030, ATCC 90030 spontaneous mutant, Fks2 HS1 D666H",0.25 µg/mL
same,MIC,"[5]; ATCC2001|ATCC90030, ATCC 90030 spontaneous mutant, Fks2 HS1 ΔF659",2 µg/mL
